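Exposure lasted 48 hours, with cells grown in 96-well plates and compounds tested at five concentrations. Here, GI50 denotes the concentration required for 50% inhibition of growth.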 Calls of active or inactive are those of the source. Rule as the data show it: active = GI50 up to about 1.1 µM and inactive = higher.
What was measured:
Experiment in all cases: NCI anticancer screen, dose series, 48 h
[1] = tested on: RPMI-8226
[2] = tested on: A498
[3] = tested on: SK-MEL-28
[4] = tested on: COLO 205
[5] = tested on: Malme-3M
[6] = tested on: HCT-15
[7] = tested on: HOP-92
[8] = tested on: HOP-18
[9] = tested on: M19-MEL
[10] = tested on: UACC-62
[11] = tested on: DMS-273
[12] = tested on: KM12
[13] = tested on: SK-OV-3
[14] = tested on: SN12C
[15] = tested on: SK-MEL-2
[16] = tested on: HCT-116
[17] = tested on: KM-20L2
[18] = tested on: OVCAR-4
[19] = tested on: SW-620
[20] = tested on: RXF 393
[21] = tested on: OVCAR-8
[22] = tested on: HOP-62
[23] = tested on: SF-268
[24] = tested on: SF-295
[25] = tested on: DMS-114
[26] = tested on: U-251
[27] = tested on: NCI-H23
[28] = tested on: OVCAR-5
[29] = tested on: HCC 2998
[30] = tested on: LOX IMVI
[31] = tested on: K562
[32] = tested on: MCF7
[33] = tested on: MOLT-4
[34] = tested on: SF-539
[35] = tested on: SNB-75
[36] = tested on: SNB-78
[37] = tested on: UO-31
[38] = tested on: NCI/ADR-RES
[39] = tested on: SK-MEL-5
[40] = tested on: IGROV-1
[41] = tested on: DLD-1
[42] = tested on: HL-60
[43] = tested on: OVCAR-3
[44] = tested on: XF498
[45] = tested on: CCRF-CEM
[46] = tested on: CAKI-1
[47] = tested on: UACC-257
[48] = tested on: EKVX
[49] = tested on: NCI-H460
[50] = tested on: NCI-H226
[51] = tested on: SNB-19
[52] = tested on: A549
[53] = tested on: NCI-H522
[54] = tested on: HT-29
[55] = tested on: M14
[56] = tested on: ACHN
[57] = tested on: LXFL 529
[58] = tested on: TK-10
[59] = tested on: 786-0

## O=[N+]([O-])c1cc(C(F)(F)F)cc2c1SC1=Nc3ccccc3CN12
[1]
  GI50: > 100 µM (inactive)
[2]
  GI50: > 100 µM (inactive)
[3]
  GI50: > 100 µM (inactive)
[4]
  GI50: > 100 µM (inactive)
[5]
  GI50: > 100 µM (inactive)
[6]
  GI50: > 100 µM
[7]
  GI50: > 100 µM (inactive)
[8]
  GI50: > 100 µM (inactive)
[9]
  GI50: > 100 µM (inactive)
[10]
  GI50: > 100 µM (inactive)
[11]
  GI50: > 100 µM (inactive)
[12]
  GI50: > 100 µM (inactive)
[13]
  GI50: > 100 µM (inactive)
[14]
  GI50: > 100 µM (inactive)
[15]
  GI50: > 100 µM (inactive)
[16]
  GI50: > 100 µM (inactive)
[17]
  GI50: > 100 µM (inactive)
[18]
  GI50: > 100 µM (inactive)
[19]
  GI50: > 100 µM (inactive)
[20]
  GI50: > 100 µM (inactive)
[21]
  GI50: > 100 µM (inactive)
[22]
  GI50: > 100 µM (inactive)
[23]
  GI50: > 100 µM (inactive)
[24]
  GI50: > 100 µM (inactive)
[25]
  GI50: > 100 µM (inactive)
[26]
  GI50: > 100 µM (inactive)
[27]
  GI50: > 100 µM (inactive)
[28]
  GI50: > 100 µM (inactive)
[29]
  GI50: > 100 µM (inactive)
[30]
  GI50: > 100 µM (inactive)
[31]
  GI50: > 100 µM (inactive)
[32]
  GI50: > 100 µM (inactive)
[33]
  GI50: > 100 µM (inactive)
[34]
  GI50: > 100 µM (inactive)
[35]
  GI50: > 100 µM (inactive)
[36]
  GI50: > 100 µM (inactive)
[37]
  GI50: > 100 µM (inactive)
[38]
  GI50: > 100 µM (inactive)
[39]
  GI50: > 100 µM (inactive)
[40]
  GI50: > 100 µM (inactive)
[41]
  GI50: > 100 µM (inactive)
[42]
  GI50: > 100 µM (inactive)
[43]
  GI50: > 100 µM (inactive)
[44]
  GI50: > 100 µM (inactive)
[45]
  GI50: > 100 µM (inactive)
[46]
  GI50: > 100 µM (inactive)
[47]
  GI50: > 100 µM (inactive)
[48]
  GI50: > 100 µM (inactive)
[49]
  GI50: > 100 µM (inactive)
[50]
  GI50: > 100 µM (inactive)
[51]
  GI50: > 100 µM (inactive)
[52]
  GI50: > 100 µM (inactive)
[53]
  GI50: > 100 µM (inactive)
[54]
  GI50: > 100 µM (inactive)

## N/C(=N\O)N/N=C/c1ccc2c(c1)OCCO2
[1]
  GI50: 16.8 µM (inactive)
[2]
  GI50: 27.2 µM (inactive)
[3]
  GI50: 21.4 µM (inactive)
[4]
  GI50: 7.28 µM (inactive)
[6]
  GI50: 10.3 µM
[7]
  GI50: 27 µM (inactive)
[8]
  GI50: 24.2 µM (inactive)
[9]
  GI50: > 33 µM (inactive)
[11]
  GI50: 16.6 µM (inactive)
[12]
  GI50: 5.04 µM (inactive)
[13]
  GI50: 34 µM (inactive)
[14]
  GI50: 29.6 µM (inactive)
[15]
  GI50: 9.08 µM (inactive)
[16]
  GI50: 21.7 µM (inactive)
[17]
  GI50: 4.13 µM (inactive)
[18]
  GI50: 8.91 µM (inactive)
[19]
  GI50: 28.2 µM (inactive)
[20]
  GI50: 27.9 µM (inactive)
[21]
  GI50: 8.49 µM (inactive)
[22]
  GI50: 19.8 µM (inactive)
[23]
  GI50: 4.81 µM (inactive)
[24]
  GI50: 6.59 µM (inactive)
[25]
  GI50: > 28.2 µM (inactive)
[26]
  GI50: 21.3 µM (inactive)
[27]
  GI50: 25.6 µM (inactive)
[28]
  GI50: 4.72 µM (inactive)
[30]
  GI50: 8.09 µM (inactive)
[31]
  GI50: 7.85 µM (inactive)
[32]
  GI50: 22.1 µM (inactive)
[33]
  GI50: 19.1 µM (inactive)
[34]
  GI50: 17.1 µM (inactive)
[35]
  GI50: 29.9 µM (inactive)
[36]
  GI50: 57.7 µM (inactive)
[37]
  GI50: 8.65 µM (inactive)
[38]
  GI50: 11.1 µM (inactive)
[39]
  GI50: 7.21 µM (inactive)
[40]
  GI50: 12.4 µM (inactive)
[41]
  GI50: 19.7 µM (inactive)
[42]
  GI50: 18.2 µM (inactive)
[43]
  GI50: 3.15 µM (inactive)
[44]
  GI50: 8.79 µM (inactive)
[45]
  GI50: 33.7 µM (inactive)
[46]
  GI50: 16.4 µM (inactive)
[47]
  GI50: 18.6 µM (inactive)
[48]
  GI50: 9.27 µM (inactive)
[49]
  GI50: 7.55 µM (inactive)
[50]
  GI50: 4.08 µM (inactive)
[51]
  GI50: 9.82 µM (inactive)
[52]
  GI50: 4.7 µM (inactive)
[53]
  GI50: 6.65 µM (inactive)
[54]
  GI50: 8.53 µM (inactive)

## C[C@@]12CCCc3coc(c31)C(=O)c1cc3c(cc12)C(=O)C=CC3=O [XESTOQUINONE]
[1]
  GI50: 5.98 µM (inactive)
[2]
  GI50: 56.2 µM (inactive)
[55]
  GI50: 16.1 µM (inactive)
[6]
  GI50: 17.7 µM
[7]
  GI50: 4.52 µM (inactive)
[8]
  GI50: 15 µM (inactive)
[9]
  GI50: 13.8 µM (inactive)
[10]
  GI50: 17.4 µM (inactive)
[12]
  GI50: 21.7 µM (inactive)
[14]
  GI50: 20.3 µM (inactive)
[15]
  GI50: 15.4 µM (inactive)
[17]
  GI50: 18.4 µM (inactive)
[18]
  GI50: 15.5 µM (inactive)
[19]
  GI50: 5.08 µM (inactive)
[20]
  GI50: 14.9 µM (inactive)
[21]
  GI50: 15.5 µM (inactive)
[56]
  GI50: 12.8 µM (inactive)
[25]
  GI50: 18.5 µM (inactive)
[26]
  GI50: 31.3 µM (inactive)
[27]
  GI50: 16 µM (inactive)
[28]
  GI50: 22 µM (inactive)
[29]
  GI50: 28.1 µM (inactive)
[30]
  GI50: 15.8 µM (inactive)
[31]
  GI50: 3.61 µM (inactive)
[33]
  GI50: 1.96 µM (inactive)
[34]
  GI50: 15.7 µM (inactive)
[57]
  GI50: 15 µM (inactive)
[58]
  GI50: 21.2 µM (inactive)
[35]
  GI50: 19.3 µM (inactive)
[37]
  GI50: 16.2 µM (inactive)
[39]
  GI50: 16.7 µM (inactive)
[40]
  GI50: 18.5 µM (inactive)
[41]
  GI50: 2.54 µM (inactive)
[42]
  GI50: 2.38 µM (inactive)
[43]
  GI50: 20.2 µM (inactive)
[44]
  GI50: 16.1 µM (inactive)
[45]
  GI50: 2.23 µM (inactive)
[46]
  GI50: 14.9 µM (inactive)
[47]
  GI50: 16.2 µM (inactive)
[48]
  GI50: 18.8 µM (inactive)
[49]
  GI50: 21.8 µM (inactive)
[51]
  GI50: 43.8 µM (inactive)
[52]
  GI50: 23.7 µM (inactive)
[59]
  GI50: 17 µM (inactive)
[53]
  GI50: 7.06 µM (inactive)
[54]
  GI50: 22.3 µM (inactive)
